Source: patent publication US11059808B2, “Substituted phenylpyrrolecarboxamides with therapeutic activity in HIV” (New York Blood Center, Inc., priority 2014, dated 2021)

Columns and labels:
Assay type in all cases: cell-based
[1] = Cytotoxicity in TZM-bl cells (XTT); conditions: human, XTT, 3 days
Method: (§1) The cytotoxicity of test compounds in TZM-bl cells was also measured by the XTT method described previously^7. […] The soluble intracellular formazan was quantitated colorimetrically at 450 nm 4 h later. The percent of cytotoxicity and the CC50 values were calculated as above. (See Table 4)

[2] = test system: HIV-1 pseudovirus pseudotyped with HXB2 Env; assay: microbe, parasite or virus in culture; conditions: single cycle assay, TZM-bl cells infected with HIV-1 pseudovirus pseudotyped with HXB2 Env;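 also: endpoint is IC50 for inhibition of pseudovirus infection of TZM-bl cells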
TZM-bl cells = assay: Cytotoxicity in TZM-bl cells (XTT); conditions: XTT, 3 days
Method: as §1

[3] = Human immunodeficiency virus 1, HXB2, TZM-bl

SMILES	CC50 at 3 days [1]	other results
Cc1nc(C(NC(=O)c2ccc(-c3ccc(Cl)c(F)c3)[nH]2)C2CCCCN2)sc1CO (single isomer, unassigned) [Compound 20]	15.2 ± 0.2 µM	
Cc1ccc(-c2ccc(C(=O)NC(c3nc(C)c(CO)s3)C3CCCCN3)[nH]2)cc1F (single isomer, unassigned) [Compound 22]	≥ 36 µM	
Cc1ccc(-c2ccc(C(=O)NC(c3nc(C)c(CCO)s3)C3CCCCN3)[nH]2)cc1F (single isomer, unassigned) [Compound 24]	28.8 ± 1 µM	
Cc1nc(C(NC(=O)c2ccc(-c3ccc(Cl)c(F)c3)[nH]2)C2CCCCN2)sc1CCO (single isomer, unassigned) [Compound 26]	16.1 ± 0.2 µM	
Cc1nc(C(NC(=O)c2ccc(-c3ccc(Cl)cc3)[nH]2)C2CCCCN2)sc1CCO (single isomer, unassigned) [Compound 28]	17.3 ± 0.1 µM	
Cc1ccc(-c2ccc(C(=O)NC(c3nc(C)c(CCCO)s3)C3CCCCN3)[nH]2)cc1F (single isomer, unassigned) [Compound 30]	17 ± 0.7 µM	
Cc1nc(C(NC(=O)c2ccc(-c3ccc(Cl)c(F)c3)[nH]2)C2CCCCN2)sc1CCCO (single isomer, unassigned) [Compound 31]	8.2 ± 0.3 µM	
Cc1nc(C(NC(=O)c2ccc(-c3ccc(Cl)cc3)[nH]2)C2CCCCN2)[nH]c1CO (single isomer, unassigned) [Compound 33]	28 ± 0.5 µM	
Cc1nc(C(NC(=O)c2ccc(-c3ccc(Cl)c(F)c3)[nH]2)C2CCCCN2)[nH]c1CO (single isomer, unassigned) [Compound 35]	25 ± 0.5 µM	
Cc1ccc(-c2ccc(C(=O)NC(c3nc(C)c(CO)[nH]3)C3CCCCN3)[nH]2)cc1F (single isomer, unassigned) [Compound 37]	30 ± 0.3 µM	
Cc1nc(C(CN)NC(=O)c2ccc(-c3ccc(Cl)cc3)[nH]2)sc1CO (single isomer, unassigned) [Compound 39]	≥ 34 µM	
Cc1ccc(-c2ccc(C(=O)NC(CN)c3nc(C)c(CO)s3)[nH]2)cc1F (single isomer, unassigned) [Compound 43]	≥ 34 µM	
Cc1nc(C(CNC(=N)N)NC(=O)c2ccc(-c3ccc(Cl)cc3)[nH]2)sc1CO (single isomer, unassigned) [Compound 45]	> 37 µM	
Cc1nc(C(CNC(=N)N)NC(=O)c2ccc(-c3ccc(Cl)c(F)c3)[nH]2)sc1CO (single isomer, unassigned) [Compound 48]	> 36 µM	
Cc1ccc(-c2ccc(C(=O)NC(CNC(=N)N)c3nc(C)c(CO)s3)[nH]2)cc1F (single isomer, unassigned) [Compound 49]	> 37 µM	
Cc1nc(C(CN)NC(=O)c2ccc(-c3ccc(Cl)c(F)c3)[nH]2)sc1CO (single isomer, unassigned) [Compound 51]	~28 µM	
CNCC(NC(=O)c1ccc(-c2ccc(Cl)c(F)c2)[nH]1)c1nc(C)c(CO)s1 (single isomer, unassigned) [Compound 56]	~21 µM	IC50 [2]: 1.6 ± 0.6 µM
CNCC(NC(=O)c1ccc(-c2ccc(Cl)cc2)[nH]1)c1nc(C)c(CO)s1 (single isomer, unassigned) [Compound 58]	~37 µM	
Cc1nc(C(CN(C)C)NC(=O)c2ccc(-c3ccc(Cl)cc3)[nH]2)sc1CO (single isomer, unassigned) [Compound 62]	> 40 µM	IC50 [2, 3]: 22 ± 3.8 µM
Cc1ccc(-c2ccc(C(=O)NC(CN(C)C)c3nc(C)c(CO)s3)[nH]2)cc1F (single isomer, unassigned) [Compound 64]	~40 µM	IC50 [2]: ~40 µM

SMILES	CC50 at 3 days [1]	other results
CC(=O)NCC(NC(=O)c1ccc(-c2ccc(Cl)c(F)c2)[nH]1)c1nc(C)c(COC(C)=O)s1 (single isomer, unassigned) [Compound 66]	> 40 µM	
Cc1nc(C(CN(C)C)NC(=O)c2ccc(-c3ccc(Cl)c(F)c3)[nH]2)sc1CO (single isomer, unassigned) [Compound 67]	~29 µM	
Cc1ccc(-c2ccc(C(=O)NC(CCN(C)C)c3nc(C)c(CO)s3)[nH]2)cc1F (single isomer, unassigned) [Compound 72]	36.4 ± 1 µM	
Cc1nc(C(CCN(C)C)NC(=O)c2ccc(-c3ccc(Cl)c(F)c3)[nH]2)sc1CO (single isomer, unassigned) [Compound 74]	22 ± 1 µM	IC50 [2]: 4.6 ± 0.2 µM
Cc1nc(C(CCN(C)C)NC(=O)c2ccc(-c3ccc(Cl)cc3)[nH]2)sc1CO (single isomer, unassigned) [Compound 76]	21.7 ± 1 µM	
CNCCC(NC(=O)c1ccc(-c2ccc(C)c(F)c2)[nH]1)c1nc(C)c(CO)s1 (single isomer, unassigned) [Compound 78]	36.4 ± 2.6 µM	IC50 [2]: 10.4 ± 0.2 µM
CNCCC(NC(=O)c1ccc(-c2ccc(Cl)c(F)c2)[nH]1)c1nc(C)c(CO)s1 (single isomer, unassigned) [Compound 80]	22.3 ± 0.6 µM	IC50 [2]: 9.1 ± 1.1 µM
CNCCC(NC(=O)c1ccc(-c2ccc(Cl)cc2)[nH]1)c1nc(C)c(CO)s1 (single isomer, unassigned) [Compound 82]	23 ± 1.2 µM	IC50 [2]: 18.6 ± 1.5 µM
Cc1ccc(-c2ccc(C(=O)NC(CCN)c3nc(C)c(CO)s3)[nH]2)cc1F (single isomer, unassigned) [Compound 84]	47 ± 0.6 µM	IC50 [2]: 18.2 ± 2.6 µM
Cc1nc(C(CCN)NC(=O)c2ccc(-c3ccc(Cl)c(F)c3)[nH]2)sc1CO (single isomer, unassigned) [Compound 86]	22.9 ± 0.6 µM	
Cc1nc(C(CCN)NC(=O)c2ccc(-c3ccc(Cl)cc3)[nH]2)sc1CO (single isomer, unassigned) [Compound 88]	41 ± 1.1 µM	IC50 [2]: 18.7 ± 0.7 µM
Cc1nc(C(CN)NC(=O)c2cnc(-c3ccc(Cl)cc3)[nH]2)sc1CO (single isomer, unassigned) [Compound 93]	> 51 µM	
Cc1nc(C(CN)NC(=O)c2ncc(-c3ccc(Cl)cc3)[nH]2)sc1CO (single isomer, unassigned) [Compound 95]	> 51 µM	
Cc1cc(C(=O)NC(CN)c2nc(C)c(CO)s2)[nH]c1-c1ccc(Cl)cc1 (single isomer, unassigned) [Compound 97]	5.2 ± 0.3 µM	
NCC(NC(=O)c1ccc(-c2ccc(Cl)c(F)c2)[nH]1)c1ncc(CO)s1 (single isomer, unassigned) [Compound 101]	30.8 ± 1.9 µM	IC50 [2]: 0.57 ± 0.01 µM
NCC(NC(=O)c1ccc(-c2ccc(Cl)cc2)[nH]1)c1ncc(CO)s1 (single isomer, unassigned) [Compound 104]	38 ± 1.5 µM	IC50 [2]: 1.3 ± 0.1 µM
NCC(NC(=O)c1ccc(-c2cc(F)c(Cl)c(F)c2)[nH]1)c1ncc(CO)s1 (single isomer, unassigned) [Compound 119]	18 ± 0.5 µM	
CC(C)(N)C(NC(=O)c1ccc(-c2ccc(Cl)c(F)c2)[nH]1)c1ncc(CO)s1 (single isomer, unassigned) [Compound 124]		IC50 [2]: 0.46 ± 0.01 µM; CC50 (TZM-bl cells): 16.3 ± 0.6 µM
Cc1ccc(-c2ccc(C(=O)NC(c3ncc(CO)s3)C(C)(C)N)[nH]2)cc1F (single isomer, unassigned) [Compound 126]		IC50 [2]: 0.54 ± 0.01 µM; CC50 (TZM-bl cells): 18.1 ± 0.7 µM
CNCC(NC(=O)c1ccc(-c2cc(F)c(Cl)c(F)c2)[nH]1)c1ncc(CO)s1 (single isomer, unassigned) [Compound 127]		IC50 [2, 3]: 0.42 ± 0.2 µM; CC50 (TZM-bl cells): 13.9 ± 0.7 µM

SMILES	CC50 at 3 days [1]	other results
CNCC(NC(=O)c1ccc(-c2cc(F)c(Cl)c(F)c2)[nH]1)c1ncc(CO)s1 (single isomer, unassigned) [Compound 128]		IC50 [2]: 0.36 ± 0.04 µM; CC50 (TZM-bl cells): 10.4 ± 0.8 µM
COc1ccc(-c2ccc(C(=O)NC(CN)c3ncc(CO)s3)[nH]2)cc1OC (single isomer, unassigned) [Compound 130]		IC50 [2]: > 74.5 µM; CC50 (TZM-bl cells): > 74.5 µM
O=C(NC(c1ccccc1)c1ccc[nH]1)c1ccc(-c2ccc(Cl)cc2)[nH]1 (centres unmarked) [Compound 1]	> 53 µM	
Nc1nc(CNC(=O)c2ccc(-c3ccc(Cl)cc3)[nH]2)n[nH]1 [Compound 2]	> 63 µM	
N=C(N)Nc1ccc(CC(NC(=O)c2ccc(-c3ccc(Cl)cc3)[nH]2)C(=O)N2CCOCC2)cc1 (centres unmarked) [Compound 3]	> 36 µM	
N=C(N)NCCCC(NC(=O)c1ccc(-c2ccc(Cl)cc2)[nH]1)C(=O)NCCO (centres unmarked) [Compound 4]	> 44 µM	
N=C(N)NCCCC(NC(=O)c1ccc(-c2ccccc2)[nH]1)C(=O)NCCO (centres unmarked) [Compound 5]	> 47 µM	
CS(=O)(=O)NCCNC(=O)C(CCCNC(=N)N)NC(=O)c1ccc(-c2ccc(Cl)cc2)[nH]1 (centres unmarked) [Compound 6]	> 37 µM	
CS(=O)(=O)NCCNC(=O)C(CCCNC(=N)N)NC(=O)c1ccc(-c2ccccc2)[nH]1 (centres unmarked) [Compound 7]	> 43 µM	
CN1CCN(NC(=O)C(CCCNC(=N)N)NC(=O)c2ccc(-c3ccc(Cl)cc3)[nH]2)CC1 (centres unmarked) [Compound 8]	> 42 µM	
N=C(N)NCCCC(NC(=O)c1ccc(-c2ccc(Cl)cc2)[nH]1)C(=O)NN1CCOCC1 (centres unmarked) [Compound 9]	> 40 µM	
N=C(N)NCCCC(NC(=O)c1ccc(-c2ccccc2)[nH]1)C(=O)NN1CCOCC1 (centres unmarked) [Compound 10]	> 43 µM	
Cc1n[nH]c(C)c1CNC(=O)c1ccc(-c2ccc(Cl)cc2)[nH]1 [Compound 11]	~60 µM	
Cc1nccn1Cc1ccc(CNC(=O)c2ccc(-c3ccc(Cl)cc3)[nH]2)o1 [Compound 12]	22 ± 0.4 µM	
CCN(CC)Cc1ccc(OC)c(CNC(=O)c2ccc(-c3ccc(Cl)cc3)[nH]2)c1 [Compound 13]	14.2 ± 1 µM	
NS(=O)(=O)c1ccc(CCNC(=O)c2ccc(-c3ccc(Cl)cc3)[nH]2)cc1 [Compound 14]	> 50 µM	
Cc1nc(C(NC(=O)c2ccc(-c3ccc(Cl)cc3)[nH]2)C2CCCCN2)sc1CCCO (centres unmarked) [Compound 32]	13.7 ± 1 µM	
NCCNC(=O)c1ccc(-c2ccc(Cl)c(F)c2)[nH]1 [Compound 71]	19.4 ± 0.9 µM	
